# Reference: US20070128217A1 (priority 2003, published 2007)
# Key:
# [1] = test system: antibodies in sera from SARS patients (sera 1a, 1b, 2, 6, 37, 62, London, SARS-yellow, SARS-green); assay type: binding, human; set-up: Binding of serum 6 to linear peptides of protein X1 of SARS-CoV Urbani / Binding of serum 37 to linear peptides of protein X1 of SARS-CoV Urbani / Binding of serum 6 to looped/cyclic peptide (PEPSCAN-ELISA) / Binding of serum 37 to looped/cyclic peptide (PEPSCAN-ELISA) / Binding of serum 37 to looped/cyclic peptides of protein X1 of SARS-CoV Urbani / Binding of serum 6 to linear peptides of protein X2 / Binding of serum 37 to linear peptides of protein X2 / Binding of serum 37 to looped/cyclic peptides of protein X2 of SARS-CoV Urbani / Binding of serum 6 to linear peptides of protein M of SARS-CoV Urbani / Binding of serum 37 to linear peptides of protein M of SARS-CoV Urbani / Binding of serum 6 to looped/cyclic peptides of protein M of SARS-CoV Urbani / Binding of serum 37 to looped/cyclic peptides of protein M of SARS-CoV Urbani / Binding of serum 6 to linear peptides of protein X3 of SARS-CoV Urbani / Binding of serum 37 to linear peptides of protein X3 of SARS-CoV Urbani / Binding of serum 37 to looped/cyclic peptides of protein X3 of SARS-CoV Urbani / Binding of serum 6 to linear peptides of protein X4 of SARS-CoV Urbani / Binding of serum 37 to linear peptides of protein X4 of SARS-CoV Urbani / Binding of serum 37 to looped/cyclic peptides of protein X4 of SARS-CoV Urbani / Binding of serum 6 to linear peptides of protein X5 of SARS-CoV Urbani / Binding of serum 37 to linear peptides of protein X5 of SARS-CoV Urbani / Binding of serum 37 to looped/cyclic peptides of protein X5 of SARS-CoV Urbani / Binding of serum 6 to linear peptides of protein N of SARS-CoV Urbani / Binding of serum 37 to linear peptides of protein N of SARS-CoV Urbani / Binding of serum 6 to linear peptide (PEPSCAN-ELISA) / Binding of serum 1a to looped/cyclic peptides of protein N of SARS-CoV Urbani / Binding of serum 1b to looped/cyclic peptides of protein N of SARS-CoV Urbani / Binding of serum 2 to looped/cyclic peptides of protein N of SARS-CoV Urbani / Binding of serum 6 to looped/cyclic peptides of protein N of SARS-CoV Urbani / Binding of serum 37 to looped/cyclic peptides of protein N of SARS-CoV Urbani / Binding of serum 62 to looped/cyclic peptides of protein N of SARS-CoV Urbani / Binding of serum London to looped/cyclic peptides of protein N of SARS-CoV Urbani / Binding of serum SARS-green to looped/cyclic peptides of protein N of SARS-CoV Urbani: unit not given here
# [2] = test system: control sera (pooled serum of ten healthy LUMC hospital workers; commercial negative donor pooled serum from the Dutch bloodbank); assay type: binding, human; set-up: Binding of Control serum LUMC to linear peptides / Binding of Control serum Blood-bank to linear peptides / Binding of Control serum LUMC to looped peptides / Binding of Control Serum Blood-Bank to Looped peptides / Binding of Control serum LUMC to linear peptides of the protein M of SARS-CoV Urbani / Binding of Control serum Blood-bank to linear peptides of the protein M of SARS-CoV Urbani / Binding of Control serum LUMC to looped peptides of the protein M of SARS-CoV Urbani / Binding of Control Serum Blood-Bank to Looped peptides of the protein M of SARS-CoV Urbani: unit not given here
# [3] = test system: rabbit serum obtained by immunizing a rabbit with the SARS-CoV strain Frankfurt 1; assay type: binding; set-up: Binding of a rabbit serum to linear peptides / Binding of a rabbit serum to looped peptides / Rabbit serum linear peptides / Rabbit serum looped peptides / Binding of a rabbit serum to linear peptides of protein N of SARS-CoV Urbani (Rabbit serum linear peptides) / Binding of a rabbit serum to looped/cyclic peptides of protein N of SARS-CoV Urbani (Rabbit serum looped peptides): unit not given here
sequence,measurement,setting,value
MFHLVDFQVTIAEIL,Binding of serum 1a to linear peptides of protein X3 of SARS-CoV Urbani,[1],0.8
same,Binding of serum 1a to looped/cyclic peptides of protein X3 of SARS-CoV Urbani,[1],0.8
same,Binding of serum 1b to linear peptides of protein X3 of SARS-CoV Urbani,[1],0.7
same,Binding of serum 1b to looped/cyclic peptides of protein X3 of SARS-CoV Urbani,[1],0.6
same,Binding of serum 2 to linear peptides of protein X3 of SARS-CoV Urbani,[1],0.7
same,Binding of serum 2 to looped/cyclic peptides of protein X3 of SARS-CoV Urbani,[1],0.8
same,Binding of serum 6 to linear peptides of protein X3 of SARS-CoV Urbani,[1],0.5
same,Binding of serum 6 to looped/cyclic peptides of protein X3 of SARS-CoV Urbani,[1],0.6
same,Binding of serum 37 to linear peptides of protein X3 of SARS-CoV Urbani,[1],0.7
same,Binding of serum 37 to looped/cyclic peptides of protein X3 of SARS-CoV Urbani,[1],1.0
same,Binding of serum 62 to linear peptides of protein X3 of SARS-CoV Urbani,[1],0.8
same,Binding of serum 62 to looped/cyclic peptides of protein X3 of SARS-CoV Urbani,[1],0.8
same,Binding of serum London to linear peptides of protein X3 of SARS-CoV Urbani,[1],0.7
same,Binding of serum London to looped/cyclic peptides of protein X3 of SARS-CoV Urbani,[1],0.3
same,Binding of serum SARS-green to linear peptides of protein X3 of SARS-CoV Urbani,[1],0.3
same,Binding of serum SARS-green to looped/cyclic peptides of protein X3 of SARS-CoV Urbani,[1],0.6
same,Binding of serum SARS-yellow to linear peptides of protein X3 of SARS-CoV Urbani,[1],0.6
same,Binding of serum SARS-yellow to looped/cyclic peptides of protein X3 of SARS-CoV Urbani,[1],0.8
same,Binding of Control Serum Blood-Bank to Looped peptides of the protein X3 of SARS-CoV Urbani,[2],0.8
same,Binding of Control serum Blood-bank to linear peptides of the protein X3 of SARS-CoV Urbani,[2],0.9
same,Binding of Control serum LUMC to linear peptides of the protein X3 of SARS-CoV Urbani,[2],0.9
same,Binding of Control serum LUMC to looped peptides of the protein X3 of SARS-CoV Urbani,[2],1.0
same,Rabbit serum linear peptides,[3],0.3
same,Rabbit serum looped peptides,[3],0.4
SHLLLVAAGMEAQFL,Binding of serum 1a to linear peptides of protein X1 of SARS-CoV Urbani,[1],0.8
same,Binding of serum 1a to looped/cyclic peptide (PEPSCAN-ELISA),[1],0.2
same,Binding of serum 1b to linear peptides of protein X1 of SARS-CoV Urbani,[1],0.7
same,Binding of serum 1b to looped/cyclic peptide (PEPSCAN-ELISA),[1],0.5
same,Binding of serum 2 to linear peptides of protein X1 of SARS-CoV Urbani,[1],0.7
same,Binding of serum 2 to looped/cyclic peptide (PEPSCAN-ELISA),[1],0.1
same,Binding of serum 6 to linear peptides of protein X1 of SARS-CoV Urbani,[1],0.6
same,Binding of serum 6 to looped/cyclic peptide (PEPSCAN-ELISA),[1],0.1
same,Binding of serum 37 to linear peptides of protein X1 of SARS-CoV Urbani,[1],0.8
same,Binding of serum 37 to looped/cyclic peptide (PEPSCAN-ELISA),[1],0.1
same,Binding of serum 62 to linear peptides of protein X1 of SARS-CoV Urbani,[1],0.8
same,Binding of serum 62 to looped/cyclic peptide (PEPSCAN-ELISA),[1],0.2
same,Binding of serum London to linear peptides of protein X1 of SARS-CoV Urbani,[1],0.3
same,Binding of serum London to looped/cyclic peptide (PEPSCAN-ELISA),[1],0.1
same,Binding of serum SARS-green to linear peptides of protein X1 of SARS-CoV Urbani,[1],0.3
same,Binding of serum SARS-green to looped/cyclic peptide (PEPSCAN-ELISA),[1],0.5
same,Binding of serum SARS-yellow to linear peptides of protein X1 of SARS-CoV Urbani,[1],0.7
same,Binding of serum SARS-yellow to looped/cyclic peptide (PEPSCAN-ELISA),[1],0.0
same,Binding of Control Serum Blood-Bank to Looped peptides,[2],0.4
same,Binding of Control serum Blood-bank to linear peptides,[2],0.7
same,Binding of Control serum LUMC to linear peptides,[2],0.7
same,Binding of Control serum LUMC to looped peptides,[2],0.2
same,Binding of a rabbit serum to linear peptides,[3],0.5
same,Binding of a rabbit serum to looped peptides,[3],0.0
